What was measured:
[1] = tested on: NIH-3T3; assay: MTT cytotoxicity assay, NIH-3T3; format: cell-based, murine; details: Mus musculus, NIH3T3; MTT, 48 h continuous treatment, non-cancer cell; read-out: IC50 NIH-3T3
Experimental: (§1) All cells were grown into mycoplasma free condition. […] All cells were grown up to 75-85% confluency after which cells were trypsinized, counted and seeded, in 96-well plates for cell viability studies, 6-well plates for apoptosis studies, 60 mm dish for cell cycle studies and in 25 cm^2 or 75 cm^2 tissue culture flasks for Western blot studies. The primary stock of the cationic progesterone molecules were made in cell culture grade DMSO and from that secondary stock was prepared by serial dilution with cell culture grade DMSO. The final working concentrations were prepared by diluting the secondary stock in cell culture media keeping the DMSO concentration in working solution below 0.2% with respect to cell culture medium. […] For this assay, 12-18 h before treatment cells were plated in 96-well plate at 5000 cells/well density. […] After completion of the treatment, 10 μL of MTT solution (5 mg/mL) was added in each well and incubated for 4 h. Then the media was removed carefully, and the reduced MTT was dissolved in 1:1 (v/v) DMSO/Methanol and absorbance was measured using multimode reader (Synergy H1, BioTek). Results were represented as percentage of viability={[A550(treated cells)−background]/[A550(untreated cells)−background]}×100. The result was summarized and provided as IC50 table in Table 1.

[2] = tested on: T47D; assay: MTT cytotoxicity assay, T47D; format: cell-based; details: Homo sapiens, MTT, 48 h continuous treatment, read-out: IC50 T47D
Experimental: as §1

[3] = tested on: OVCAR-3; assay: MTT cytotoxicity assay, OVCAR-3; format: cell-based; details: Homo sapiens, OVCAR-3; MTT, 48 h continuous treatment; read-out: IC50 OVCAR-3
Experimental: as §1

[4] = tested on: MCF7; assay: MTT cytotoxicity assay, MCF7; format: cell-based; details: Homo sapiens, MCF7; MTT, 48 h continuous treatment; read-out: IC50 MCF7
Experimental: as §1

[5] = tested on: B16F10; assay: MTT cytotoxicity assay, B16F10; format: cell-based, murine; details: Mus musculus, B16-F10; MTT, 48 h continuous treatment; read-out: IC50 B16F10
Experimental: as §1

[6] = tested on: COS-1; assay: MTT cytotoxicity assay, COS-1; format: cell-based; details: Chlorocebus aethiops, COS-1; MTT, 48 h continuous treatment, non-cancer cell; read-out: IC50 COS-1
Experimental: as §1

[7] = tested on: MDA-MB-231; assay: MTT cytotoxicity assay, MDA-MB-231; format: cell-based, human; details: Homo sapiens, MDA-MB-231; MTT, 48 h continuous treatment; read-out: IC50 MDA-MB-231
Experimental: as §1

[8] = tested on: CHO; assay: MTT cytotoxicity assay, CHO; format: cell-based, Chinese hamster; details: Cricetulus griseus, MTT, 48 h continuous treatment, non-cancer cell, read-out: IC50 CHO
Experimental: as §1

[9] = tested on: non-cancer cells CHO, COS-1 and NIH-3T3; assay: MTT viability, tested non-cancer cells (combination treatment study, FIG. 1B); format: cell-based; details: 48 h, 2.5 μM-40 μM
Experimental: FIG. 1B: The viability studies of non-cancer cells CHO, COS-1 and NIIH-3T3 after 48 h of continuous treatment with compound 1 (10 μM), 10C [cationic lipid control molecule not containing progesterone moiety]
(§2) Cytotoxicity assay of the different compounds were carried out by using 3-(4,5-dimethylthiazol-2-yl)-2,5-diphenyltetrazolium bromide (MTT). For this assay, 12-18 h before treatment cells were plated in 96-well plate at 5000 cells/well density. After incubation cells were treated continuously for 48 h with respective compounds at different concentration (2.5 μM-40 μM). After completion of the treatment, 10 μL of MTT solution (5 mg/mL) was added in each well and incubated for 4 h. Then the media was removed carefully, and the reduced MTT was dissolved in 1:1 (v/v) DMSO/Methanol and absorbance was measured using multimode reader (Synergy H1, BioTek). Results were represented as percentage of viability={[A550(treated cells)−background]/[A550(untreated cells)−background]}×100. The result was summarized and provided as IC50 table in Table 1.
(§3) For combination treatment effect, cells were plated in 96 well plates at 5000 cells/well. […] Following 48 h of treatment cell viability was measured following above mentioned MTT study.

[10] = tested on: cancer cells T47D, OVCAR-3, MDA-MB-231, MCF-7 and B16F10; assay: MTT viability, all tested cancer cells (combination treatment study, FIG. 1A); format: cell-based; details: 48 h, 2.5 μM-40 μM
Experimental: FIG. 1A: The viability studies of cancer cells T47D, OVCAR-3, MDA-MB-231, MCF-7 and B16F10 after 48 h of continuous treatment with compound 1 (10 μM), 10C [cationic lipid control molecule not containing progesterone moiety]
as §2, §3

Row | Compound | IC50 [1] | IC50 [2] | IC50 [3] | IC50 [4] | IC50 [5] | IC50 [6] | IC50 [7] | IC50 [8] | toxicity towards tested non-cancer cells [9] | cell killing in all tested cancer cells [10]
1 | CCCCCC[N+](C)(CCCCCC)CCNC(=O)CCC(=O)O[C@@H](C)[C@H]1CCC2C3CCC4=CC(=O)CC[C@]4(C)C3CC[C@@]21C (stereo partly drawn) [Compound 6a, N-(2-(4-((1S)-1-((10R,13S,17S)-10,13-dimethyl-3-oxo-2,3,6,7,8,9,10,11,12,13,14,15,16,17-tetradecahydro-1H-cyclopenta[a]phenanthren-17-yl)ethoxy)-4-oxobutanamido)ethyl)-N-hexyl-N-methylhexan-1-aminium chloride] | > 20 µM | 7.43 ± 0.76 µM | 13.9 ± 0.53 µM | > 15 µM | > 15 µM | > 20 µM | 5.78 ± 0.38 µM | 17.9 ± 0.56 µM | – | –
2 | CCCCCCCC[N+](C)(CCCCCCCC)CCNC(=O)CCC(=O)O[C@@H](C)[C@H]1CCC2C3CCC4=CC(=O)CC[C@]4(C)C3CC[C@@]21C.[Cl-] (stereo partly drawn) [Compound 6b, N-(2-(4-((1S)-1-((10R,13S,17S)-10,13-dimethyl-3-oxo-2,3,6,7,8,9,10,11,12,13,14,15,16,17-tetradecahydro-1H-cyclopenta[a]phenanthren-17-yl)ethoxy)-4-oxobutanamido)ethyl)-N-methyl-N-octyloctan-1-aminium chloride] | > 20 µM | 4.07 ± 0.23 µM | 11.9 ± 0.45 µM | 8.28 ± 0.12 µM | 9.95 ± 0.32 µM | > 20 µM | 8.56 ± 0.52 µM | 17 ± 0.41 µM | largely non-toxic | significant amount of cell killing
3 | CCCCCCCCCCCC[N+](C)(CCCCCCCCCCCC)CCNC(=O)CCC(=O)O[C@@H](C)[C@H]1CCC2C3CCC4=CC(=O)CC[C@]4(C)C3CC[C@@]21C.[Cl-] (stereo partly drawn) [Compound 6d, N-(2-(4-((1S)-1-((10R,13S,17S)-10,13-dimethyl-3-oxo-2,3,6,7,8,9,10,11,12,13,14,15,16,17-tetradecahydro-1H-cyclopenta[a]phenanthren-17-yl)ethoxy)-4-oxobutanamido)ethyl)-N-dodecyl-N-methyldodecan-1-aminium chloride] | > 20 µM | 12.8 ± 0.43 µM | 6.83 ± 0.13 µM | 7.04 ± 0.28 µM | 9.54 ± 0.18 µM | > 20 µM | 6.36 ± 0.19 µM | 17.5 ± 0.18 µM | largely non-toxic | significant amount of cell killing
4 | CCCCCCCCCCCCCC[N+](C)(CCCCCCCCCCCCCC)CCNC(=O)CCC(=O)O[C@@H](C)[C@H]1CCC2C3CCC4=CC(=O)CC[C@]4(C)C3CC[C@@]21C (stereo partly drawn) [Compound 6e, N-(2-(4-((1S)-1-((10R,13S,17S)-10,13-dimethyl-3-oxo-2,3,6,7,8,9,10,11,12,13,14,15,16,17-tetradecahydro-1H-cyclopenta[a]phenanthren-17-yl)ethoxy)-4-oxobutanamido)ethyl)-N-methyl-N-tetradecyltetradecan-1-aminium chloride] | > 20 µM | > 15 µM | > 15 µM | > 15 µM | > 15 µM | > 20 µM | > 15 µM | > 15 µM | – | –
5 | CCCCCCCCCCCCCCCC[N+](C)(CCCCCCCCCCCCCCCC)CCNC(=O)CCC(=O)O[C@@H](C)[C@H]1CCC2C3CCC4=CC(=O)CC[C@]4(C)C3CC[C@@]21C (stereo partly drawn) [Compound 6f, N-(2-(4-((1S)-1-((10R,13S,17S)-10,13-dimethyl-3-oxo-2,3,6,7,8,9,10,11,12,13,14,15,16,17-tetradecahydro-1H-cyclopenta[a]phenanthren-17-yl)ethoxy)-4-oxobutanamido)ethyl)-N-hexadecyl-N-methylhexadecan-1-aminium chloride] | > 20 µM | > 15 µM | > 15 µM | > 15 µM | > 15 µM | > 20 µM | > 15 µM | > 15 µM | – | –
6 | CCCCCCCCCCCCCCCCCC[N+](C)(CCCCCCCCCCCCCCCCCC)CCNC(=O)CCC(=O)O[C@@H](C)[C@H]1CCC2C3CCC4=CC(=O)CC[C@]4(C)C3CC[C@@]21C (stereo partly drawn) [Compound 6g, N-(2-(4-((1S)-1-((10R,13S,17S)-10,13-dimethyl-3-oxo-2,3,6,7,8,9,10,11,12,13,14,15,16,17-tetradecahydro-1H-cyclopenta[a]phenanthren-17-yl)ethoxy)-4-oxobutanamido)ethyl)-N-methyl-N-octadecyloctadecan-1-aminium chloride] | > 20 µM | > 15 µM | > 15 µM | > 15 µM | > 15 µM | > 20 µM | > 15 µM | > 15 µM | – | –

— patent US10100079B2, “Progesterone-cationic lipid hybrid as anticancer agent and the process of synthesis thereof” (Council of Scientific & Industrial Research, priority 2016, dated 2018)
